Test results from patent publication US20050222200A1, “AMIDE DERIVATIVES AS ION CHANNEL LIGANDS AND PHARMACEUTICAL COMPOSITIONS AND METHODS OF USING THE SAME” (Renovis, Inc., priority 2003, published 2005).

These compounds were tested against T1, VR1 (Homo sapiens, UniProt Q8NER1) (assay: High throughput calcium imaging assay of VR1 antagonists (Fura2, Flex Station, 96 well)). Details: Table 1 activity class.
T1 construct: expressed in transfected cells; host or cells: 293 cells ("293 neurons" [sic])
Format: cell-based
Further: test concentration or dose not given here.

T1 sequence (Q8NER1 whole entry, species assumed): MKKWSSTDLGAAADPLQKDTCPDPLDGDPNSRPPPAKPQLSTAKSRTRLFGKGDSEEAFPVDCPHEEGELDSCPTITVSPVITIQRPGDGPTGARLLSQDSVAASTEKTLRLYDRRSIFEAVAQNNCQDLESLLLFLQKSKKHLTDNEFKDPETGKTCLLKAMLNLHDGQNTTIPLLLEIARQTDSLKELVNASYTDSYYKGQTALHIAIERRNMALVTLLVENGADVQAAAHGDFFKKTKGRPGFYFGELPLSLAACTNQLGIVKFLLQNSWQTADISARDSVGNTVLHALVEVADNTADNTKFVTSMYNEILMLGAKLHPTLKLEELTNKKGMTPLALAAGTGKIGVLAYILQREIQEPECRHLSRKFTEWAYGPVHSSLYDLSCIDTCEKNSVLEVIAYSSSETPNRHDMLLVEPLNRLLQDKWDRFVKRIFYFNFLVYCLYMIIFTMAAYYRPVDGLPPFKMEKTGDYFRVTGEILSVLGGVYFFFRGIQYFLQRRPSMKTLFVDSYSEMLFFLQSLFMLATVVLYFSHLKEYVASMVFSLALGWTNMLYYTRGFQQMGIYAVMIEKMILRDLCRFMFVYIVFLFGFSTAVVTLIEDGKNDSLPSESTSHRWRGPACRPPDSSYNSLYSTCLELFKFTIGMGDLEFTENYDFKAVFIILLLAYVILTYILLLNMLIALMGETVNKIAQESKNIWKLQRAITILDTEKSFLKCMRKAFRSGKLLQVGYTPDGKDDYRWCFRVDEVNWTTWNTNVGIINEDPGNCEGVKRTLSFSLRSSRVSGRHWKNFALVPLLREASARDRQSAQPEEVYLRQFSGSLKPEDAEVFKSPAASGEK

Structure (SMILES)	inhibition of calcium ion influx induced by capsaicin stimulation
CC(C)(C)/C=C/c1ccc(C(=O)NC2CCC(C(C)(C)C)CC2)cc1 (stereo not drawn) [Compound 12]	+ (compound exhibited 0-25% inhibition of calcium ion influx induced by capsaicin stimulation)
CCC/C=C/c1ccc(C(=O)NCCN2CCCC2)cc1 [Compound 192]	+ (compound exhibited 0-25% inhibition of calcium ion influx induced by capsaicin stimulation)
CCC/C=C/c1ccc(C(=O)NC(C)(C)c2ccccc2)cc1 [Compound 219]	+ (compound exhibited 0-25% inhibition of calcium ion influx induced by capsaicin stimulation)
CC(C)(C)/C=C/c1ccc(C(=O)Nc2ccc(C(F)(F)F)cn2)cc1 [Compound 70]	+ (compound exhibited 0-25% inhibition of calcium ion influx induced by capsaicin stimulation)
CCc1ccnc(NC(=O)c2ccc(/C=C/C(C)(C)C)cc2)c1 [Compound 72]	+ (compound exhibited 0-25% inhibition of calcium ion influx induced by capsaicin stimulation)
CC(C)(C)/C=C/c1ccc(C(=O)NCc2ccncc2)cc1 [Compound 49]	++++ (compound exhibited 75% or greater inhibition of calcium ion influx induced by capsaicin stimulation)
CC(C)(C)/C=C/c1ccc(C(=O)NCC2CCCO2)cc1 (stereo not drawn) [Compound 16]	+ (compound exhibited 0-25% inhibition of calcium ion influx induced by capsaicin stimulation)
CCC/C=C/c1ccc(C(=O)Nc2ccccc2CCC)cc1 [Compound 230]	+ (compound exhibited 0-25% inhibition of calcium ion influx induced by capsaicin stimulation)
CC(C)(C)/C=C/c1ccc(C(=O)Nc2ccc3ncccc3c2)cc1 [Compound 78]	++++ (compound exhibited 75% or greater inhibition of calcium ion influx induced by capsaicin stimulation)
COc1cc(NC(=O)c2ccc(/C=C/C(C)(C)C)cc2)cc(C(F)(F)F)c1 [Compound 44]	++++ (compound exhibited 75% or greater inhibition of calcium ion influx induced by capsaicin stimulation)
CN(C)c1cccc(NC(=O)c2ccc(/C=C/C(C)(C)C)cc2)c1 [Compound 61]	++++ (compound exhibited 75% or greater inhibition of calcium ion influx induced by capsaicin stimulation)
CCCCc1ccc(NC(=O)c2ccc(/C=C/C(C)(C)C)cc2)cc1 [Compound 42]	+ (compound exhibited 0-25% inhibition of calcium ion influx induced by capsaicin stimulation)
COc1ccc(CCNC(=O)c2ccc(/C=C/C(C)(C)C)cc2)cc1OC [Compound 24]	+ (compound exhibited 0-25% inhibition of calcium ion influx induced by capsaicin stimulation)
COc1ccc(NC(=O)c2ccc(/C=C/C(C)(C)C)cc2)cn1 [Compound 75]	++ (compound exhibited 25-50% inhibition of calcium ion influx induced by capsaicin stimulation)
CC(C)/C=C/c1ccc(C(=O)NCc2ccccn2)cc1 [Compound 120]	+ (compound exhibited 0-25% inhibition of calcium ion influx induced by capsaicin stimulation)
Cc1ccc2[nH]c(=O)c3ccc(/C=C/C(C)(C)C)cc3c2c1 [Compound 45]	++++ (compound exhibited 75% or greater inhibition of calcium ion influx induced by capsaicin stimulation)
CCC/C=C/c1ccc(C(=O)Nc2cccc(N(C)C)c2)cc1 [Compound 226]	+++ (compound exhibited 50-75% inhibition of calcium ion influx induced by capsaicin stimulation)
CCC/C=C/c1ccc(C(=O)Nc2cc[nH]n2)cc1 [Compound 204]	+ (compound exhibited 0-25% inhibition of calcium ion influx induced by capsaicin stimulation)
CC(C)/C=C/c1ccc(C(=O)NCc2ccco2)cc1 [Compound 88]	++ (compound exhibited 25-50% inhibition of calcium ion influx induced by capsaicin stimulation)
CC(C)/C=C/c1ccc(C(=O)Nc2cccc(C#N)c2)cc1 [Compound 150]	++ (compound exhibited 25-50% inhibition of calcium ion influx induced by capsaicin stimulation)
CC(C)(C)/C=C/c1ccc(C(=O)Nc2ccncn2)cc1 [Compound 67]	+ (compound exhibited 0-25% inhibition of calcium ion influx induced by capsaicin stimulation)
CC(C)/C=C/c1ccc(C(=O)Nc2ccc(C(C)C)cc2)cc1 [Compound 153]	++++ (compound exhibited 75% or greater inhibition of calcium ion influx induced by capsaicin stimulation)
CCC/C=C/c1ccc(C(=O)NCCc2ccccc2Cl)cc1 [Compound 194]	+ (compound exhibited 0-25% inhibition of calcium ion influx induced by capsaicin stimulation)
CC(C)/C=C/c1ccc(C(=O)NCc2cccs2)cc1 [Compound 127]	++ (compound exhibited 25-50% inhibition of calcium ion influx induced by capsaicin stimulation)

Structure (SMILES)	inhibition of calcium ion influx induced by capsaicin stimulation
CC(C)/C=C/c1ccc(C(=O)NCCc2ccccc2Cl)cc1 [Compound 98]	+ (compound exhibited 0-25% inhibition of calcium ion influx induced by capsaicin stimulation)
CC(C)/C=C/c1ccc(C(=O)Nc2ccccc2Cl)cc1 [Compound 136]	+ (compound exhibited 0-25% inhibition of calcium ion influx induced by capsaicin stimulation)
CC(C)/C=C/c1ccc(C(=O)Nc2ccc3c(c2)Cc2ccccc2-3)cc1 [Compound 175]	+ (compound exhibited 0-25% inhibition of calcium ion influx induced by capsaicin stimulation)
CCC/C=C/c1ccc(C(=O)NCc2cc(OC)c(OC)c(OC)c2)cc1 [Compound 213]	+ (compound exhibited 0-25% inhibition of calcium ion influx induced by capsaicin stimulation)
CCC/C=C/c1ccc(C(=O)NC2CCCCC2)cc1 [Compound 181]	+ (compound exhibited 0-25% inhibition of calcium ion influx induced by capsaicin stimulation)
CCn1c2ccccc2c2cc(NC(=O)c3ccc(/C=C/C(C)C)cc3)ccc21 [Compound 172]	++ (compound exhibited 25-50% inhibition of calcium ion influx induced by capsaicin stimulation)
COc1ccc(NC(=O)c2ccc(/C=C/C(C)C)cc2)cc1Cl [Compound 145]	+ (compound exhibited 0-25% inhibition of calcium ion influx induced by capsaicin stimulation)
CC(C)/C=C/c1ccc(C(=O)Nc2cccnc2)cc1 [Compound 106]	++ (compound exhibited 25-50% inhibition of calcium ion influx induced by capsaicin stimulation)
CC(C)(C)/C=C/c1ccc(C(=O)Nc2ccc3c(c2)OCO3)cc1 [Compound 47]	++++ (compound exhibited 75% or greater inhibition of calcium ion influx induced by capsaicin stimulation)
CCC/C=C/c1ccc(C(=O)Nc2ccncc2)cc1 [Compound 202]	+ (compound exhibited 0-25% inhibition of calcium ion influx induced by capsaicin stimulation)
CC(C)(C)/C=C/c1ccc(C(=O)Nc2ccc(C3CCCCC3)cc2)cc1 [Compound 43]	+ (compound exhibited 0-25% inhibition of calcium ion influx induced by capsaicin stimulation)
CCC/C=C/c1ccc(C(=O)NC(c2ccccc2)c2ccccc2)cc1 [Compound 191]	+ (compound exhibited 0-25% inhibition of calcium ion influx induced by capsaicin stimulation)
CC(C)/C=C/c1ccc(C(=O)Nc2ccnc(Cl)c2)cc1 [Compound 168]	+ (compound exhibited 0-25% inhibition of calcium ion influx induced by capsaicin stimulation)
CCC/C=C/c1ccc(C(=O)NCCc2ccc(OC)c(OC)c2)cc1 [Compound 217]	+ (compound exhibited 0-25% inhibition of calcium ion influx induced by capsaicin stimulation)
Cc1ccnc(NC(=O)c2ccc(/C=C/C(C)(C)C)cc2)c1 [Compound 64]	+ (compound exhibited 0-25% inhibition of calcium ion influx induced by capsaicin stimulation)
CCC/C=C/c1ccc(C(=O)NCc2cccc(C(F)(F)F)c2)cc1 [Compound 211]	+ (compound exhibited 0-25% inhibition of calcium ion influx induced by capsaicin stimulation)
COc1ccccc1NC(=O)c1ccc(/C=C/C(C)C)cc1 [Compound 132]	+ (compound exhibited 0-25% inhibition of calcium ion influx induced by capsaicin stimulation)
Cc1ccc(NC(=O)c2ccc(/C=C/C(C)C)cc2)c(C)c1 [Compound 156]	+ (compound exhibited 0-25% inhibition of calcium ion influx induced by capsaicin stimulation)
CCCNC(=O)c1ccc(/C=C/C(C)(C)C)cc1 [Compound 14]	+ (compound exhibited 0-25% inhibition of calcium ion influx induced by capsaicin stimulation)
CC(C)/C=C/c1ccc(C(=O)Nc2ccccc2CCO)cc1 [Compound 151]	+++ (compound exhibited 50-75% inhibition of calcium ion influx induced by capsaicin stimulation)
CCC/C=C/c1ccc(C(=O)NCCN2CCOCC2)cc1 [Compound 209]	+ (compound exhibited 0-25% inhibition of calcium ion influx induced by capsaicin stimulation)
CCNC(=O)c1ccc(/C=C/C(C)C)cc1 [Compound 126]	++ (compound exhibited 25-50% inhibition of calcium ion influx induced by capsaicin stimulation)
CC(C)(C)/C=C/c1ccc(C(=O)NC2CCC(Cc3ccccc3)CC2)cc1 (stereo not drawn) [Compound 56]	+ (compound exhibited 0-25% inhibition of calcium ion influx induced by capsaicin stimulation)
CC(C)(C)/C=C/c1ccc(C(=O)Nc2ccncc2)cc1 [Compound 52]	++++ (compound exhibited 75% or greater inhibition of calcium ion influx induced by capsaicin stimulation)
